In patent publication US20030017599A1, “Assay for the detection of selectable marker expression in plants” (priority 1999, published 2003):

Columns and labels:
Assay type in all cases: in vivo, corn (Zea mays)
[1] = test system: Nontransgenic corn plants (H99); experiment: Kanamycin, paromomycin and the combination with and without surfactant; settings: 20 μL, 5 plants, seven days
Description: Nontransgenic corn plants (H99) were tested at 24 days old using 5 plants for each treatment. Plants were treated with and without surfactant at two different concentrations of paromomycin, kanamycin, and the combination of paromomycin and kanamycin._On the day of application, an antibiotic solutions consisting of 750 mg/L or 1000 mg/L paromomycin and 0.06% (v/v) SILWET L-77 was prepared, as was a control solution consisting of 750 mg/L or 1000 mg/L of paromomycin in water. […] Antibiotic solution (20 μL) was applied to the whorl of each corn plant, from which any standing water has been removed beforehand.

[2] = test system: Nontransgenic 3-week-old corn seedlings; experiment: Titration of selective agents with cotton rolls tied to the whorl
Description: Nontransgenic 3-week-old corn seedlings were assayed in order to determine the quantity of selective agent necessary in order to obtain a response. […] Cotton rolls were saturated with solutions consisting of 0.03% SILWET L-77 and various concentrations of each of these three antibiotics individually and tied to the whorl of plants to be tested.
The concentrations of genenticin tested were 25 mg/mL, 50 mg/mL, 75 mg/mL, and 100 mg/mL.

[3] = test system: corn plants containing NPTII protein; experiment: Paromomycin as selective agent to identify corn plants containing NPTII protein (predicted); settings: 10 μL of 1000 mg/L paromomycin and 0.06% (v/v) SILWET L-77; five days
Excerpt: Samples of the plants may be taken and analyzed by ELISA for the presence or absence of NPTII protein prior to the start of the field test. […] Negative controls (i.e., nontransgenic plants) may be divided into two equal groups. […] The treated plants may then be scored for the presence or absence of necrosis five days after application of the antibiotic/[…]-77 solution or control solution. […] The field assay scores may then be correlated with the […] results.

[4] = 750 mg/L (each antibiotic), with 0.06% SILWET L-77
[5] = 750 mg/L (each antibiotic), without SILWET L-77
[6] = 1000 mg/L (each antibiotic), with 0.06% SILWET L-77
[7] = 1000 mg/L (each antibiotic), without SILWET L-77

Row | Structure (SMILES) | number of plants with mild symptoms [1, 4] | number of plants with no symptoms [1, 4] | number of plants with severe necrosis [1, 4] | number of plants with mild symptoms [1, 5] | number of plants with no symptoms [1, 5] | number of plants with severe necrosis [1, 5] | number of plants with mild symptoms [1, 6] | number of plants with no symptoms [1, 6] | number of plants with severe necrosis [1, 6] | number of plants with mild symptoms [1, 7] | number of plants with no symptoms [1, 7] | number of plants with severe necrosis [1, 7] | bleaching and necrosis in treated plant leaves ([2]; 300 mg/L, 500 mg/L and 750 mg/L in 0.03% SILWET L-77, two days) | bleaching and necrosis in treated plant leaves ([2]; 1000 mg/L in 0.03% SILWET L-77, two days) | necrosis relative to similarly treated leaves of corn plants that do not contain NPTII protein [3]
1 | NC[C@H]1O[C@H](O[C@H]2[C@H](O)[C@@H](O[C@H]3O[C@H](CO)[C@@H](O)[C@H](N)[C@H]3O)[C@H](N)C[C@@H]2N)[C@H](O)[C@@H](O)[C@@H]1O [kanamycin] | 0 | 0 | 5 | 1 | 4 | 0 | 2 | 0 | 3 | 1 | 4 | 0 | – | – | –
2 | NC[C@@H]1O[C@H](O[C@H]2[C@@H](O)[C@H](O[C@@H]3[C@@H](O)[C@H](N)C[C@H](N)[C@H]3O[C@H]3O[C@H](CO)[C@@H](O)[C@H](O)[C@H]3N)O[C@@H]2CO)[C@H](N)[C@@H](O)[C@@H]1O [paromomycin] | 0 | 2 | 3 | 0 | 5 | 0 | 0 | 1 | 4 | 0 | 5 | 0 | Slight to moderate necrosis and some bleaching | extreme necrosis and some bleaching | reduced or no necrosis
